Laboratory results: patent US9340590B2 (priority 2011, dated 2016)
Positions of bridges follow the written chain, without caps; N, C: chain ends. Non-standard residues stand in square brackets, D forms with d. Residues, ends and D or L forms follow the SMILES beside them. Phe(3,4-(OMe)2) = COc1ccc(C[C@H](N)C(=O)O)cc1OC; Lys(Me2) = CN(C)CCCC[C@H](N)C(=O)O

Experiments:
hNav1.7 = hNav1.7 (Homo sapiens, UniProt Q15858); assay: cell-based; conditions: Nav1.7 Use IC50
hNav1.5 = hNav1.5 (Homo sapiens, UniProt Q14524); assay: cell-based
hNav1.5, sequence (Q14524 whole entry, looked up): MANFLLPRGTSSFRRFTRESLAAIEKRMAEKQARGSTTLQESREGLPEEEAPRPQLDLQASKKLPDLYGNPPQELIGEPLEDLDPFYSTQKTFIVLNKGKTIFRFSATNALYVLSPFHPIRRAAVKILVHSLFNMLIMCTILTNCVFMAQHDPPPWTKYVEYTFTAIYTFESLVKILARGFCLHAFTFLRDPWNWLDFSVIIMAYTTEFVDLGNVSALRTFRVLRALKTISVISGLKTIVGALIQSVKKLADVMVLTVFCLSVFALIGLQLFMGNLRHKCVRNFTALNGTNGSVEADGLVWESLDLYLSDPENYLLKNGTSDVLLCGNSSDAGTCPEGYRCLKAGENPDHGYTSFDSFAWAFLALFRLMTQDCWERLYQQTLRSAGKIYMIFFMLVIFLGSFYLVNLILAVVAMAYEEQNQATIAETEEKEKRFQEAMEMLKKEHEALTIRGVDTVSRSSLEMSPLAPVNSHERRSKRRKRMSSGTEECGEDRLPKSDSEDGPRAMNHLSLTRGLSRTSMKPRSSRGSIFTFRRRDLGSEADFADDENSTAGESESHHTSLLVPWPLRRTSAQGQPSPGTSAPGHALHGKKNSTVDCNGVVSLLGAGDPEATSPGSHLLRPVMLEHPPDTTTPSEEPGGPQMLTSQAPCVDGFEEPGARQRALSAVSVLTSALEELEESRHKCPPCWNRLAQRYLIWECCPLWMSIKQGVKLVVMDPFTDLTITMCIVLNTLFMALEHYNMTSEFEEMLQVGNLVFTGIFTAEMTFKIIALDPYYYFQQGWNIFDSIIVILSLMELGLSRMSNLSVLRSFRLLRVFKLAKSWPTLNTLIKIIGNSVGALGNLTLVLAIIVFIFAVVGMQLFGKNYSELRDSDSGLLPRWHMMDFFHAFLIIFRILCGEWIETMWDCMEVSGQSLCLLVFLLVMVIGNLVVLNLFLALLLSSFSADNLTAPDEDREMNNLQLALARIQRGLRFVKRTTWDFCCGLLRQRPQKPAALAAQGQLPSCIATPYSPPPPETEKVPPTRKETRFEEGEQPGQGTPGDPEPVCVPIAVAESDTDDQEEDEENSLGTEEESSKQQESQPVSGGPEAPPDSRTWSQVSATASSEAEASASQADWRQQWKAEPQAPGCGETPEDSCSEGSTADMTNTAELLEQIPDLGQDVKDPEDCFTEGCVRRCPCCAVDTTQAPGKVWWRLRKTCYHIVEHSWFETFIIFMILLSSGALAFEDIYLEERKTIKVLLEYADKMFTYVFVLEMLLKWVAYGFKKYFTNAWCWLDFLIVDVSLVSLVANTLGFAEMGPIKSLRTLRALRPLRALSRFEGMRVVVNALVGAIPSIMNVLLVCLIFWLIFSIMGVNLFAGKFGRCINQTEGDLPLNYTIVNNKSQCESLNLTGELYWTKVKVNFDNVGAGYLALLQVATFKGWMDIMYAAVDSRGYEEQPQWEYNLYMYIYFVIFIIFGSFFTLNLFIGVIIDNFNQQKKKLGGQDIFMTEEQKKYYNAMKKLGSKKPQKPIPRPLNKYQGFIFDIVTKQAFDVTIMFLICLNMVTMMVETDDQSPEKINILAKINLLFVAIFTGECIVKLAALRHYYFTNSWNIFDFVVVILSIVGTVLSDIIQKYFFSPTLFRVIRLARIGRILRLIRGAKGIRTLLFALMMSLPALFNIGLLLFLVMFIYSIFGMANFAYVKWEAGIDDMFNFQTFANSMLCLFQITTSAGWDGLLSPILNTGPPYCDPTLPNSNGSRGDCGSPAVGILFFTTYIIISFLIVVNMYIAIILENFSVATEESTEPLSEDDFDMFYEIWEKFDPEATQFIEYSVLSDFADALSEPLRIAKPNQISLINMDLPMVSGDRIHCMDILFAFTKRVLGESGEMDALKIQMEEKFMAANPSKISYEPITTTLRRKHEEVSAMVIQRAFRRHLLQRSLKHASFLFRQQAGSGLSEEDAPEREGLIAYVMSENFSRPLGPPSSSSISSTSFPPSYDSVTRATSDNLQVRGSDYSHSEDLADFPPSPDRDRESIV

hNav1.7, sequence (Q15858 whole entry, looked up): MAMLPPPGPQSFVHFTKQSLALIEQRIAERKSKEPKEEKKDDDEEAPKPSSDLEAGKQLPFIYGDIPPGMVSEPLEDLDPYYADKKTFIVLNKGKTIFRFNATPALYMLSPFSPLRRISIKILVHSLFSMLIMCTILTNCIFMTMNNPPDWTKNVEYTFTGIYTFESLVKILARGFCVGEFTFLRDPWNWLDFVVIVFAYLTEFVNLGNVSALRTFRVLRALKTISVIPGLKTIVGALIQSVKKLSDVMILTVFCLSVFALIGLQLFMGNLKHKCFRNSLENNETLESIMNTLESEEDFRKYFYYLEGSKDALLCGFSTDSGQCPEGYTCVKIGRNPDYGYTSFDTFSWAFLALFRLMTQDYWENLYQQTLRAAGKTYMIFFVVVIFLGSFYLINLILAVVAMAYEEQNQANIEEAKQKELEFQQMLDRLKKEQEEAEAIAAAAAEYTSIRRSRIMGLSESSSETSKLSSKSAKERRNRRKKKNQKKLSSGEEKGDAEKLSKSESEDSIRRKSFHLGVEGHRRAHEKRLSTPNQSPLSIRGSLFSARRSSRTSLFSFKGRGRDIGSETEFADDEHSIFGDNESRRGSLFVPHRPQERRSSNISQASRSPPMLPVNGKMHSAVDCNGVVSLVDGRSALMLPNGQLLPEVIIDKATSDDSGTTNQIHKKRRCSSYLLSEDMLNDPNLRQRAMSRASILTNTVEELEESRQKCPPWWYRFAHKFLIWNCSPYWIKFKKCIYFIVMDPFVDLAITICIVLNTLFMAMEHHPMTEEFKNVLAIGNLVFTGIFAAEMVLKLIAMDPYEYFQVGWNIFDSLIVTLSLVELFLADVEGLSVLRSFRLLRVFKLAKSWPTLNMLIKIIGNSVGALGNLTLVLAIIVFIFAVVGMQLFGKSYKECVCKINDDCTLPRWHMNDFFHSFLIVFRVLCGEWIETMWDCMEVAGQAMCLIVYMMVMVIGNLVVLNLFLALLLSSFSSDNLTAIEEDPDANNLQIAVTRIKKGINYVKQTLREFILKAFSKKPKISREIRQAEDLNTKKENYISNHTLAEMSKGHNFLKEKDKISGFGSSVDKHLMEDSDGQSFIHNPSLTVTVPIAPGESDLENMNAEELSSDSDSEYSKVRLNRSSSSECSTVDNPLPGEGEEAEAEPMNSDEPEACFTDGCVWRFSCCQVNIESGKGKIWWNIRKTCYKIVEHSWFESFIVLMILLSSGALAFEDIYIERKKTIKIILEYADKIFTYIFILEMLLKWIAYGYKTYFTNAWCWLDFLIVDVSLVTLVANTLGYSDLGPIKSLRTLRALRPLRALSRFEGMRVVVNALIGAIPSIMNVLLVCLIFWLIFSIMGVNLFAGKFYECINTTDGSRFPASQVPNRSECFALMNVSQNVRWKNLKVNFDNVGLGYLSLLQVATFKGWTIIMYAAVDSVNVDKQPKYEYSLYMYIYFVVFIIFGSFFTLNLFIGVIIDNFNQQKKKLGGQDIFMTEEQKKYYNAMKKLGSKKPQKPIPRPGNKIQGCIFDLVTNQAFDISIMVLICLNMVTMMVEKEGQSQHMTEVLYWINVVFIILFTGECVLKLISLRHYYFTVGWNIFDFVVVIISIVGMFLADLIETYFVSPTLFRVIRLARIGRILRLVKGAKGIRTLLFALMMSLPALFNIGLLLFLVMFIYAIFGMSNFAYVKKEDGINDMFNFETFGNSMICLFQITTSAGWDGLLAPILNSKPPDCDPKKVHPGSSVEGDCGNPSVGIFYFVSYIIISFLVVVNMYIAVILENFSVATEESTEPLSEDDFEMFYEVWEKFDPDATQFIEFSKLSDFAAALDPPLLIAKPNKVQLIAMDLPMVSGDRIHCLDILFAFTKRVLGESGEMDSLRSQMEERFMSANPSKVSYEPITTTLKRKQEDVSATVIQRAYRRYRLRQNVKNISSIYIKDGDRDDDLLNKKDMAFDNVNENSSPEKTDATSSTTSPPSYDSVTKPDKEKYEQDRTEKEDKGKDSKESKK

SMILES | IC50 (hNav1.7) [µM] | IC50 (hNav1.5) [µM]
CC[C@H](C)[C@@H]1NC(=O)[C@@H]2CSSC[C@@H]3NC(=O)[C@H](C(C)C)NC(=O)[C@H](CC(C)C)NC(=O)[C@H](CC(N)=O)NC(=O)[C@@H]4CCCN4C(=O)[C@H](CCCNC(N)=O)NC(=O)[C@H](CSSC[C@H](NC(=O)[C@@H](N)CC(=O)O)C(=O)N[C@@H](CC(C)C)C(=O)NCC(=O)N[C@@H](Cc4ccccc4)C(=O)N[C@@H](CCSC)C(=O)N[C@@H](CCCNC(=N)N)C(=O)N[C@@H](CCCCN)C(=O)N2)NC(=O)[C@H](CSSC[C@@H](C(=O)N[C@@H](CCCCN)C(=O)N[C@@H](Cc2ccc(O)cc2)C(=O)N[C@H](C(=O)N[C@@H](Cc2ccccc2)C(N)=O)C(C)C)NC(=O)[C@H](Cc2c[nH]c4ccccc24)NC(=O)[C@H](CCCCN)NC(=O)[C@H](Cc2cnc[nH]2)NC(=O)[C@H]([C@@H](C)O)NC(=O)[C@H](CCCNC(=N)N)NC(=O)[C@H](CO)NC3=O)NC(=O)[C@H](CCCCN)NC(=O)[C@H](CC(=O)O)NC(=O)[C@H](CC(N)=O)NC(=O)[C@H](CC(=O)O)NC(=O)[C@@H]2CCCN2C1=O [[Cit18]GpTx-1(1-34)] | 0.002 | 10
CC[C@H](C)[C@@H]1NC(=O)[C@@H]2CSSC[C@@H]3NC(=O)[C@H](C(C)C)NC(=O)[C@H](CC(C)C)NC(=O)[C@H](CC(N)=O)NC(=O)[C@@H]4CCCN4C(=O)[C@H](CCCNC(=N)N)NC(=O)[C@H](CSSC[C@H](NC(=O)[C@@H](N)CC(=O)O)C(=O)N[C@@H](CC(C)C)C(=O)NCC(=O)N[C@@H](Cc4ccccc4)C(=O)N[C@@H](CCSC)C(=O)N[C@@H](CCCNC(=N)N)C(=O)N[C@@H](CCCCN)C(=O)N2)NC(=O)[C@H](CSSC[C@@H](C(=O)N[C@@H](CCCCN)C(=O)N[C@@H](Cc2ccc(O)cc2)C(=O)N[C@H](C(=O)N[C@@H](Cc2ccccc2)C(N)=O)C(C)C)NC(=O)[C@H](Cc2c[nH]c4ccccc24)NC(=O)[C@H](CCCCN)NC(=O)[C@H](Cc2c[nH]cn2)NC(=O)[C@H]([C@@H](C)O)NC(=O)[C@H](CCCNC(N)=O)NC(=O)[C@H](CO)NC3=O)NC(=O)[C@H](CCCCN)NC(=O)[C@H](CC(=O)O)NC(=O)[C@H](CC(N)=O)NC(=O)[C@H](CC(=O)O)NC(=O)[C@@H]2CCCN2C1=O [[Cit25]GpTx-1(1-34)] | 0.004 | > 10
CC[C@H](C)[C@@H]1NC(=O)[C@@H]2CSSC[C@@H]3NC(=O)[C@H](C(C)C)NC(=O)[C@H](CC(C)C)NC(=O)[C@H](CC(N)=O)NC(=O)[C@@H]4CCCN4C(=O)[C@H](CCCNC(=N)N)NC(=O)[C@H](CSSC[C@H](NC(=O)[C@@H](N)CC(=O)O)C(=O)N[C@@H](CC(C)C)C(=O)NCC(=O)N[C@@H](Cc4ccc(OC)c(OC)c4)C(=O)N[C@@H](Cc4ccccc4)C(=O)N[C@@H](CCCNC(=N)N)C(=O)N[C@@H](CCCCN)C(=O)N2)NC(=O)[C@H](CSSC[C@@H](C(=O)N[C@@H](CCCCN)C(=O)N[C@@H](Cc2ccc(O)cc2)C(=O)N[C@H](C(=O)N[C@@H](Cc2ccccc2)C(N)=O)C(C)C)NC(=O)[C@H](Cc2c[nH]c4ccccc24)NC(=O)[C@H](CCCCN)NC(=O)[C@H](Cc2c[nH]cn2)NC(=O)[C@H]([C@@H](C)O)NC(=O)[C@H](CCCNC(=N)N)NC(=O)[C@H](CO)NC3=O)NC(=O)[C@H](CCCCN)NC(=O)[C@H](CC(=O)O)NC(=O)[C@H](CC(N)=O)NC(=O)[C@H](CC(=O)O)NC(=O)[C@@H]2CCCN2C1=O [[DiMeO-F5;Phe6]GpTx-1(1-34)] (H-DCLG[Phe(3,4-(OMe)2)]FRKCIPDNDKCCRPNLVCSRTHKWCKYVF-NH2; disulfide 2-17, 9-23, 16-30) | 0.033 | > 10
CC[C@H](C)[C@@H]1NC(=O)[C@@H]2CSSC[C@@H]3NC(=O)[C@H](C(C)C)NC(=O)[C@H](CC(C)C)NC(=O)[C@H](CC(N)=O)NC(=O)[C@@H]4CCCN4C(=O)[C@H](CCCNC(=N)N)NC(=O)[C@H](CSSC[C@H](NC(=O)[C@@H](N)CC(=O)O)C(=O)N[C@@H](CC(C)C)C(=O)NCC(=O)N[C@@H](Cc4ccccc4)C(=O)N[C@@H](CCSC)C(=O)N[C@@H](CCCNC(=N)N)C(=O)N[C@@H](CCCCN)C(=O)N2)NC(=O)[C@H](CSSC[C@@H](C(=O)N[C@@H](CCCCN)C(=O)N[C@@H](Cc2ccc(O)cc2)C(=O)N[C@H](C(=O)N[C@@H](Cc2ccccc2)C(N)=O)C(C)C)NC(=O)[C@H](Cc2c[nH]c4ccccc24)NC(=O)[C@H](CCCCN)NC(=O)[C@H](Cc2c[nH]cn2)NC(=O)[C@H]([C@@H](C)O)NC(=O)[C@H](CCCNC(=N)N)NC(=O)[C@H](CO)NC3=O)NC(=O)[C@H](CCC(=O)O)NC(=O)[C@H](CC(=O)O)NC(=O)[C@H](CC(N)=O)NC(=O)[C@H](CC(=O)O)NC(=O)[C@@H]2CCCN2C1=O [[Glu15]GpTx-1(1-34)] (H-DCLGFMRKCIPDNDECCRPNLVCSRTHKWCKYVF-NH2; disulfide 2-17, 9-23, 16-30) | 0.02 | 10
CC[C@H](C)[C@@H]1NC(=O)[C@@H]2CSSC[C@@H]3NC(=O)[C@H](C(C)C)NC(=O)[C@H](CC(C)C)NC(=O)[C@H](CC(N)=O)NC(=O)[C@@H]4CCCN4C(=O)[C@H](CCCNC(=N)N)NC(=O)[C@H](CSSC[C@H](NC(=O)[C@@H](N)CC(=O)O)C(=O)N[C@@H](CC(C)C)C(=O)NCC(=O)N[C@@H](Cc4ccccc4)C(=O)N[C@@H](CCSC)C(=O)N[C@@H](CCCNC(=N)N)C(=O)N[C@@H](CCCCN)C(=O)N2)NC(=O)[C@H](CSSC[C@@H](C(=O)N[C@@H](CCCCN)C(=O)N[C@@H](Cc2ccc(O)cc2)C(=O)N[C@H](C(=O)N[C@@H](Cc2ccccc2)C(N)=O)C(C)C)NC(=O)[C@H](Cc2c[nH]c4ccccc24)NC(=O)[C@H](CCCCN)NC(=O)[C@H](Cc2c[nH]cn2)NC(=O)[C@H]([C@@H](C)O)NC(=O)[C@H](CCC(=O)O)NC(=O)[C@H](CO)NC3=O)NC(=O)[C@H](CCCCN)NC(=O)[C@H](CC(=O)O)NC(=O)[C@H](CC(N)=O)NC(=O)[C@H](CC(=O)O)NC(=O)[C@@H]2CCCN2C1=O [[Glu25]GpTx-1(1-34)] (H-DCLGFMRKCIPDNDKCCRPNLVCSETHKWCKYVF-NH2; disulfide 2-17, 9-23, 16-30) | 0.028 | > 10
CC[C@H](C)[C@@H]1NC(=O)[C@@H]2CSSC[C@@H]3NC(=O)[C@H](C(C)C)NC(=O)[C@H](CC(C)C)NC(=O)[C@H](CC(N)=O)NC(=O)[C@@H]4CCCN4C(=O)[C@H](CCCNC(=N)N)NC(=O)[C@H](CSSC[C@H](NC(=O)[C@@H](N)CC(=O)O)C(=O)N[C@@H](CC(C)C)C(=O)NCC(=O)N[C@@H](Cc4ccccc4)C(=O)N[C@@H](CCSC)C(=O)N[C@@H](CCCNC(=N)N)C(=O)N[C@@H](CCCCN)C(=O)N2)NC(=O)[C@H](CSSC[C@@H](C(=O)N[C@@H](CCCCN)C(=O)N[C@@H](Cc2ccc(O)cc2)C(=O)N[C@H](C(=O)N[C@@H](Cc2ccccc2)C(N)=O)C(C)C)NC(=O)[C@H](Cc2c[nH]c4ccccc24)NC(=O)[C@H](CCCCN)NC(=O)[C@H](Cc2cnc[nH]2)NC(=O)[C@H](Cc2cnc[nH]2)NC(=O)[C@H](CCCNC(=N)N)NC(=O)[C@H](CO)NC3=O)NC(=O)[C@H](CCCCN)NC(=O)[C@H](CC(=O)O)NC(=O)[C@H](CC(N)=O)NC(=O)[C@H](CC(=O)O)NC(=O)[C@@H]2CCCN2C1=O [[His26]GpTx-1(1-34)] (H-DCLGFMRKCIPDNDKCCRPNLVCSRHHKWCKYVF-NH2; disulfide 2-17, 9-23, 16-30) | 0.003 | 4.95
CC[C@H](C)[C@@H]1NC(=O)[C@@H]2CSSC[C@@H]3NC(=O)[C@H](C(C)C)NC(=O)[C@H](CC(C)C)NC(=O)[C@H](CC(N)=O)NC(=O)[C@@H]4CCCN4C(=O)[C@H](CCCNC(=N)N)NC(=O)[C@H](CSSC[C@H](NC(=O)[C@@H](N)CC(=O)O)C(=O)N[C@@H](CC(C)C)C(=O)NCC(=O)N[C@@H](Cc4ccccc4)C(=O)N[C@@H](CCSC)C(=O)N[C@@H](CCCNC(=N)N)C(=O)N[C@@H](CCCCN)C(=O)N2)NC(=O)[C@H](CSSC[C@@H](C(=O)N[C@@H](CCCCN)C(=O)N[C@@H](Cc2ccc(O)cc2)C(=O)N[C@H](C(=O)N[C@@H](Cc2ccccc2)C(N)=O)C(C)C)NC(=O)[C@H](Cc2c[nH]c4ccccc24)NC(=O)[C@H](CCCCN)NC(=O)[C@H](Cc2c[nH]cn2)NC(=O)[C@H]([C@@H](C)O)NC(=O)[C@H](CCCCN(C)C)NC(=O)[C@H](CO)NC3=O)NC(=O)[C@H](CCCCN)NC(=O)[C@H](CC(=O)O)NC(=O)[C@H](CC(N)=O)NC(=O)[C@H](CC(=O)O)NC(=O)[C@@H]2CCCN2C1=O [[K(Me2)25]GpTx-1(1-34)] (H-DCLGFMRKCIPDNDKCCRPNLVCS[Lys(Me2)]THKWCKYVF-NH2; disulfide 2-17, 9-23, 16-30) | 0.008 | 13.3
CC[C@H](C)[C@@H]1NC(=O)[C@@H]2CSSC[C@@H]3NC(=O)[C@H](C(C)C)NC(=O)[C@H](CC(C)C)NC(=O)[C@H](CC(N)=O)NC(=O)[C@@H]4CCCN4C(=O)[C@H](CCCNC(=N)N)NC(=O)[C@H](CSSC[C@H](NC(=O)[C@@H](N)CC(=O)O)C(=O)N[C@@H](CC(C)C)C(=O)NCC(=O)N[C@@H](CC(C)C)C(=O)N[C@@H](CC(C)C)C(=O)N[C@@H](CCCNC(=N)N)C(=O)N[C@@H](CCCCN)C(=O)N2)NC(=O)[C@H](CSSC[C@@H](C(=O)N[C@@H](CCCCN)C(=O)N[C@@H](Cc2ccc(O)cc2)C(=O)N[C@H](C(=O)N[C@@H](Cc2ccccc2)C(N)=O)C(C)C)NC(=O)[C@H](Cc2c[nH]c4ccccc24)NC(=O)[C@H](CCCCN)NC(=O)[C@H](Cc2c[nH]cn2)NC(=O)[C@H]([C@@H](C)O)NC(=O)[C@H](CCCNC(=N)N)NC(=O)[C@H](CO)NC3=O)NC(=O)[C@H](CCCCN)NC(=O)[C@H](CC(=O)O)NC(=O)[C@H](CC(N)=O)NC(=O)[C@H](CC(=O)O)NC(=O)[C@@H]2CCCN2C1=O [[Leu5,6]GpTx-1(1-34)] (H-DCLGLLRKCIPDNDKCCRPNLVCSRTHKWCKYVF-NH2; disulfide 2-17, 9-23, 16-30) | 0.011 | > 10
